Entries after “also recorded” stand apart in the source; their conditions may differ.
What was measured:
[1] = test system: platelets (platelet cyclooxygenase acylation); experiment: Platelet washing study (ADGS); format: cell-based, human; conditions: platelet-rich plasma pretreated with drug at 37° C.; 200 μM arachidonic acid; before/after two-fold washing
Text: It is generally accepted that aspirin inhibits platelet cyclooxygenase through an irreversible acetylation process. In separate experiments, the platelet acylation by these O-acyl salicylates was investigated. It is hypothesised that if the acylation were reversible, then the O-acyl moieties might be removed by platelet washing. Consequently, the washed platelets would become susceptible to aggregation by arachidonic acid.
A platelet-washing technique, ADGS (albumin density gradient separation) similar to one used by Spriggs and Alexander (Spriggs, 1960, Nature 188 863), was employed for this purpose. The principle underlying ADGS is simply that of centrifuging platelets into a continuous density gradient produced by mixing the interface between platelet-rich plasma and 40-45% bovine serum albumin. Thereby the platelets are gently sedimented into a zone with a specific gravity equal to their own, and they are protected by the cushion of albumin from disruptive squashing on the hard surface of the centrifuge tube.
Flat-bottomed, polystyrene tubes of 10 mL capacity with stopper were used for platelet washing by ADGS. Pasteur pipettes were siliconised and used for transferring plasma and wash fluid. Stirring rods were made from Pasteur pipettes by heating the tips, forming a right-angle ben approximately 1 cm long and then siliconised. […]

[2] = cited from earlier work
[3] = at 25° C. (Foye 1989); cited from earlier work

Row | Molecule | Platelet response to arachidonic acid after pretreatment (platelet washing study) [1] | solubility ([2]; at 25° C., The Merck Index 1983) [mM] | Maximum solubility ([2]; water, 25° C., literature value (Merck Index)) [mM] | pKa [3]
1 | CCCCCC(=O)Oc1ccccc1C(=O)O [Compound C6SA, n-hexanoylsalicylic acid] | non-reversibly inhibited; also recorded: still refractory to arachidonic acid | – | – | –
2 | O-acetylsalicylic acid [Compound C2SA, reference compound] | non-reversibly inhibited; also recorded: still refractory to arachidonic acid | 18.5 | 18.5 | 3.5

— US6593365B1, “Diflunisal esters and related compounds” (The University of Queensland, priority 1997, dated 2003)
